Here are results for 1 compound from patent US20160199463A1, “HDAC2 DEFENDS VASCULAR ENDOTHELIUM FROM INJURY” (The Johns Hopkins University, priority 2014, published 2016).

One test relates to human ARG2 promoter. As to the kind of experiment: Human Arg2 promoter assay using luciferase activity in HAECs. The format is cell-based. How it is done:
Chromosomal DNA was prepared from HAECs using Trizol reagent as per manufacturer's protocol (Life sciences). Promoter fragments of Arg2 were amplified by PCR using specific primer sets as follows.
PI Forward 5′-GGGCTCGAGTGAGGTGAAATAAATTTCAGGAGTTTA-3′ (SEQ ID NO: 24); Reverse 5′-GCCAAGCTTAGCCGGGAGTGAGCGCCACCGCCC-3′ (SEQ ID NO: 25), 1 Kb; PII Forward 5′-GGGCTCGAGATAACCAGCGCTCCCGTTATTCAG-3′ (SEQ ID NO: 26); Reverse 5′-GCCAAGCTTAGCCGGGAGTGAGCGCCACCGCCC-3′ (SEQ ID NO: 27), 0.3 Kb; PIII Forward 5′-GGGCTCGAGGTTCAGGAACCTGGCATGGGCCGG-3′ (SEQ ID NO: 28); Reverse 5′-GCCAAGCTTAGCCGGGAGTGAGCGCCACCGCCC-3′ (SEQ ID NO: 29), 0.65 Kb; PIV Forward 5′-GGGCTCGAGTGAGGTGAAATAAATTTCAGGAGTTTA-3′ (SEQ ID NO: 30); Reverse 5′-GCCAAGCTTCCGGCCCATGCCAGGTTCCTGAAC-3′ (SEQ ID NO: 31), 0.3 kb.
These were cloned into the restriction sites for XhoI and HindIII on the pGL3-enhancer vector (Promega Co.). HAECs were transfected with the plasmids using Fugene 6 reagent (Roche Co.) and luciferase activity was measured by Dual-luciferase reporter assay system (Promega Co.). The luciferase activity was reported as relative luciferase units by dividing firefly luciferase activity by Renilla luciferase activity.

The subject of a further test is NO production in HAECs. As to the kind of experiment: Nitric oxide production in HAECs (DAF-DA fluorescence, Siever's NO analyzer). It is filed as cell-based, human. Particulars: TSA 1 μmol/L. Here is the method:
(§1) Nitric Oxide levels in HAEC were determined using DAF-DA as per manufacture instructions (Life Sciences). Briefly, cells were loaded with DAF-DA (5 μM) for 20 min and washed 3 times with PBS and incubated for another 30 min in phenol-free media. Fluorescence was determined using a Nikon TE-200 epifluorescence microscope. Images were captured with a Rolera EMC2 camera (Q-Imaging, BC, Canada) with Velocity software (PerkinElmer, Lexington, Mass.). NO production in the cell culture media was also determined by measuring Nitrite levels using a Siever's NO analyzer. NO radicals were measured in cell media collected after 24 hours of treatment using the Oxiselect assay (Cell Biolabs, San Diego, Calif.).

In another test the test system is SIRT. The following applies: cited from earlier work.
The test system of test [1] is arginase activity in HAECs. As to the kind of experiment: Arginase activity assay (urea production) in HAEC lysates. It is filed as cell-based, human. Here is the method:
HAEC were lysed using RIPA buffer (50 mM of Tris.HCl, pH 7.5, 0.1 mM EDTA, 0.1% Triton X-100, and protease inhibitor), and centrifuged for 30 min at 14,000 g at 4° C. 50 μL (50-100 μg) of supernatant was added to 75 μl of 10 mM MnCl2 made in Tris-HCl (50 mM, pH 7.5) and heat activated by incubating at 55-60° C. for 10 min. 50 μL of L-Arginine that was prepared in 300 mM Tris-HCL, pH 9.7 were then added to the activated cell lysates to achieve final concentrations of 150 mM and incubated at 37° C. for 3 hrs with shaking. The reaction was stopped by adding 400 μL of an acid solution (H2SO4: H3PO4: H20=1:3:7). For colorimetric determination of urea, α-isonitrosopropiophenone (25 μL, 9% in ethanol) was added and further heated at 100° C. for 45 min. Samples were allowed to cool at room temperature in the dark for 10 min and urea concentration was determined by measuring absorbance at 550 nm using a spectrophotometer.

Another test has as its system Arg2 ubiquitination. As to the kind of experiment: Arg2 ubiquitination in HAECs (immunoprecipitation). It is filed as cell-based, human. Particulars: preincubation with TSA; MG132 10 μmol/L in all groups. Here is the method:
After 48 hrs of HAEC cells transfection, cells were lysed in ice cold RIPA lysis buffer consisting of 20 mM Tris-HCl at pH 7.5, 150 mM NaCl, 1 mM EDTA, 1 mM EGTA, 1% NP40, 1% sodium deoxycholate, 1 mM Na3VO4, 2.5 mM sodium pyrophosphate, 1 mM 3-glycerophosphate, 1 μg/mL leupeptin, and a 1:1000 diluted protease inhibitor cocktail (Sigma). For immunoprecipitation studies, whole cell lysate lysates were centrifuged at 14,000×g and supernatants were precleared by incubation with Protein A/G-agarose beads for 2 h at 4° C. with rocking. Agarose beads were then pelleted by centrifugation at 1,000×g. FLAG-Arg2 in precleared lysates were immunoprecipitated by incubation overnight at 4° C. with rocking following addition of anti-FLAG antibody (10 μl). Immune complexes were eluted in 2×SDS sample buffer by boiling for 5 minutes before loading into SDS-PAGE. Western blotting analysis was performed by transferring the SDS gel onto a PVDF membrane and visualized using secondary antibodies conjugated to alkaline phosphatases.
Posttranslational modification by ubiquitin subjects proteins to proteasomal degradation and, therefore, affects their abundance. Because both acetylation and ubiquitination target lysine residues of proteins, there is a significant cross talk between these 2 pathways (Yang et al., 2008 Mol Cell, 31:449-461). […]

The subject of test [2] is arginase activity in mice aortas. As to the kind of experiment: Arginase activity in isolated segments of mice aorta. It is filed as cell-based, mouse. The following applies: TSA 200 nmol/L.
In test [3] the test system is calcium-insensitive eNOS in HEK 293 cells. As to the kind of experiment: NO radicals in medium of HEK 293 cells expressing calcium-insensitive eNOS (DCFH-DiOxyQ assay). The format is cell-based, human. The following applies: TSA alone. How it is done:
as §1
Next, the functional consequences of HDAC inhibition on downstream endothelial cell signaling were evaluated. Because eNOS-derived NO plays a central role in endothelial function, eNOS activity was assessed by measuring NO production using 3 different assays. […] HEK 293 cells lack native eNOS expression, but do produce abundant Arg2. Cell medium from 293 cells transfected with a control plasmid (LacZ) was used as a control background signal that was subtracted from all the groups containing calcium-insensitive endothelial nitric oxide synthase.

Consider `CC(/C=C/C(=O)NO)=C\[C@@H](C)C(=O)c1ccc(N(C)C)cc1` [TSA, trichostatin A], for which, in the test with human ARG2 promoter (TSA 1 μmol/L, 8 hours, versus vehicle), the “Arg2 promoter activity (luciferase)” value was “increased”. Also, the “Arg2 promoter activity, dose dependence” value with human ARG2 promoter (increasing doses of TSA) is reported as “dose dependent”. In addition, the NO production result in the test with NO production in HAECs is listed as “significantly decreased”; in test [3] it was “decreased”. For the same compound, the “block of SIRT” value with SIRT is “do not block”. Further, the “HAEC arginase activity, short-term” value in test [1] (30 minutes, nicotinamide 5 mmol/L, TSA 1 μmol/L) is recorded as “no effect”. For the same compound, in test [1] (TSA 400 nmol/L, 18 hours), the total arginase activity result was “increased”. Further, the “ubiquitination of Arg2” value in the test on Arg2 ubiquitination is on record as “no effects”. Also, the arginase activity entry in test [2] is given as “robust increase”.
